In PMC6196558, “The nitrilase PtNIT1 catabolizes herbivore-induced nitriles in Populus trichocarpa” (BMC Plant Biology, 2018) one finds Km data, which are given here for three molecules.

The target of one series is T1, PtNIT1 (Populus trichocarpa, UniProt A0A2Z4EGE4).
T1 construct: tag cleavage not mentioned
T1 sequence (A0A2Z4EGE4 1-377): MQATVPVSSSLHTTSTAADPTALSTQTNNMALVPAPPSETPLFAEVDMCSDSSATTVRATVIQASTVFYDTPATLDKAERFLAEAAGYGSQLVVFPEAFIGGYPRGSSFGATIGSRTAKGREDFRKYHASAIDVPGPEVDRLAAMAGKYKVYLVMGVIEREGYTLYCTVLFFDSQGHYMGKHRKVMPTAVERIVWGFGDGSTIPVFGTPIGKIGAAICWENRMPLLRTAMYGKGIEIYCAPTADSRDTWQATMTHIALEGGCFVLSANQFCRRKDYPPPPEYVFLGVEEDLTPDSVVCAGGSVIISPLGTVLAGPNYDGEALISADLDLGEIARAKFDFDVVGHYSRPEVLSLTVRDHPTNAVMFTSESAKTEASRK
As to the kind of experiment: LC-MS/MS product formation. It counts as biochemical. Conditions: potassium phosphate pH 7.2, 32 °C (standard assay).

Substrate in series [1]: N#CCc1c[nH]c2ccccc12
As to the kind of experiment: LC-MS/MS product formation. The note with it: potassium phosphate pH 7.2, 32 °C (standard assay). The class given is biochemical, Populus trichocarpa.

Take `N#CCc1ccccc1` [benzyl cyanide]: the Km at PtNIT1 is 24.7 ± 1.8 mM.
On to `N#CC[C@H](N)C(=O)O` [β-cyanoalanine], for which, at PtNIT1, the Km worked out at 1.2 ± 0.1 mM.

B1: PtNIT1 (Populus trichocarpa) (protein)
chain: T1 sequence (A0A2Z4EGE4 1-377)
notes: tag cleavage not mentioned
Turning to B1, the Km in series [1] is on record as 10.0 ± 1.3 mM.
